US9326973B2, “Hepatitis C virus inhibitors” (priority 2012, dated 2016)

Experiments:
[1] = system: HCV replicon, genotype 1a L31V variant with leucine 31 changed to valine in the NS5A protein; assay type: cell-based, HCV genotype 1a; details: test compound titrated in combination with a fixed 200 nM compound N47; genotype 1a L31V replicon
[2] = system: HCV replicon, genotype 1a Y93H variant with tyrosine 93 changed to histidine in the NS5A protein; assay type: cell-based, HCV genotype 1a; details: test compound titrated in combination with a fixed 200 nM compound N47; genotype 1a Y93H replicon
Method: Combinations can be examined for synergistic activity using a variety of putative NS5A-targeting compounds and a variety of test compounds. […] The test compound can be chosen from compounds exemplified below, which were prepared by methods known in the art, or from others disclosed in the literature.
Similarly, BMS-790052 can be tested singly and in combination with a fixed amount of compound N47 in the HCV replicon cell based assay consisting of the genotype 1a Y93H variant with tyrosine 93 changed to histidine in the NS5A protein.

With COC(=O)NC(C(=O)N1[C@@H](C)CC[C@H]1C1=NCC(c2ccc(-c3cnc(-c4cnc([C@@H]5CC[C@H](C)N5C(=O)[C@@H](NC(=O)OC)[C@H]5C[C@@H](C)O[C@@H](C)C5)[nH]4)c4cccn34)cc2)N1)[C@H]1C[C@@H](C)O[C@@H](C)C1 (some centres unmarked) the “Fold-Synergistic G-1a (L31V)” value [1] was greater than 10 Fold and the “Fold-Synergistic G-1a (Y93H)” value [2] was greater than 100 Fold.
For CN(C)[C@@H](C(=O)N1CCCC1c1cnc(-c2ccc3nc([C@@H]4CCCN4C(=O)[C@@H](c4ccccc4)N(C)C)[nH]c3c2)o1)c1ccccc1 (some centres unmarked), the “Fold-Synergistic G-1a (L31V)” value [1] was less than 10 Fold and the “Fold-Synergistic G-1a (Y93H)” value [2] was less than 10 Fold.
For COC(=O)N[C@H](C(=O)N1C(c2nc3ccc4cc(C#Cc5ccc6c(ccc7nc([C@@H]8CC9CC9N8C(=O)[C@@H](NC(=O)OC)C(C)C)[nH]c76)c5)ccc4c3[nH]2)C[C@H]2C[C@H]21)C(C)C (some centres unmarked), the “Fold-Synergistic G-1a (L31V)” value [1] was less than 10 Fold and the “Fold-Synergistic G-1a (Y93H)” value [2] was greater than 100 Fold.
With COC(=O)N[C@H](C(=O)N1[C@@H]2C[C@@H]2C[C@H]1C(=O)Nc1ccc(C23CC4C5CC6(c7ccc(NC(=O)[C@@H]8C[C@H]9C[C@H]9N8C(=O)[C@@H](NC(=O)OC)C(C)C)cc7)CC4C(C2)C(C6)C5C3)cc1)C(C)C the “Fold-Synergistic G-1a (L31V)” value [1] was less than 10 Fold and the “Fold-Synergistic G-1a (Y93H)” value [2] was less than 10 Fold.
For COC(=O)N[C@H](C(=O)N1[C@@H]2C[C@@H]2C[C@H]1c1ncc(-c2ccc(C3C[C@H]3c3ccc(-c4cnc([C@@H]5C[C@H]6C[C@H]6N5C(=O)[C@@H](NC(=O)OC)C(C)C)[nH]4)cc3)cc2)[nH]1)C(C)C (some centres unmarked), the “Fold-Synergistic G-1a (L31V)” value [1] was greater than 10 Fold and the “Fold-Synergistic G-1a (Y93H)” value [2] was greater than 10 Fold.
COC(=O)NC(C(=O)N1[C@@H]2C[C@@H]2C[C@H]1c1ncc(-c2cccc(-c3ccc4cc(-c5cnc([C@H]6C[C@@H]7C[C@@H]7N6C(=O)[C@@H](NC(=O)OC)C(C)C)[nH]5)ccc4c3)c2)[nH]1)C(C)C (some centres unmarked) was tested, and the “Fold-Synergistic G-1a (L31V)” value [1] was less than 10 Fold and the “Fold-Synergistic G-1a (Y93H)” value [2] was greater than 10 Fold.
With COC(=O)N[C@@H](C)C(=O)N1[C@@H]2CC[C@@H](C2)[C@H]1c1nc(-c2ccc(-c3ccc(C4=CNC([C@@H]5[C@H]6CC[C@H](C6)N5C(=O)[C@H](C)NC(=O)OC)N4)cc3)cc2)c[nH]1 (some centres unmarked) the “Fold-Synergistic G-1a (L31V)” value [1] was greater than 10 Fold and the “Fold-Synergistic G-1a (Y93H)” value [2] was less than 10 Fold.
